From patent publication US10927075B2, “Compositions and methods relating to the treatment of cancer, autoimmune disease, and neurodegenerative disease” (THE JACKSON LABORATORY, priority 2014, dated 2021)

Tests used:
MEC-1 cells = assay: Micronuclei assay; format: cell-based, human; details: 100 nM for 3 days
[1] = test system: AID-expressing mouse B-lymphocytes
HEK293T cells = assay: Sister chromatid exchange assay; format: cell-based, human; details: 100 nM, relative to DMSO vehicle
Description: C-1523 inhibits Sister Chromatid Exchange. […] To directly measure the effect of C-1523 on RAD51-mediated homologous recombination, we measured sister chromatid exchange and HR repair of an endonuclease generated DSB. Sister chromatid exchange (SCE) is a RAD51-mediated homologous recombination event between replicated sister chromatids in replicative or post-replicative cells, and reflects repair of replication-associated DNA damage. SCE can be measured following differential chromatid labeling by BrdU incorporation (Latt and Schreck, 1980). SCE is known to occur at a high rate in HEK293T cells, with approximately 0.25 spontaneously occurring exchange events per chromosome (FIGS. 14A, 14C) (Londono-Vallejo et al., 2004).
Propidium Iodide and flow cytometry.

[2] = test system: WT, AID−/−, or Trp53−/− B-cells; assay: Active caspase-3 (AC3) immunofluorescence; format: cell-based, mouse; details: 100 nM, 3 days after activation
Experimental: FIG. 16A depicts the measurement of viability of primary WT (AID+/+, circle markers), AID−/− (square markers), and p53−/− (triangle markers) B cells under activating conditions (αCD40 and IL-4 on days 0 and 2) and treated with either DMSO (filled in markers) or 100 nM C-1523 (open markers). Measurement of cell viability was determined by Trypan Blue staining and counting of viable, non-staining, cells via hemocytometer. Data are represented as the mean cell count for each condition. FIG. 16B depicts analysis of cell death on day 4 of cells treated as in FIG. 16A. Cell death was measured by Trypan Blue staining and counting of blue, dead cells via hemocytometer. FIG. 16C depicts quantitation of active caspase-3 (AC3) in primary B cells via immunofluorescence assay. Left, positive (WT, 10 Gy IR) and negative (0 Gy, and p53−/− 10 Gy) controls for AC3 induction. […]
Cell death mediated by C-1523 is p53-dependent. […] To test the importance of p53, a central regulator of cellular responses to DNA damage, viability was measured in mouse primary B-cells from Trp53+/+ versus Trp53−/− mice following exposure to C-1523. […] Caspase 3 activation, a marker of apoptotic cell death, was measured in C-1523 treated B-cells. B-cells were stained with an antibody that recognizes cleaved, activated caspase-3 (AC3) and the number of AC3-positive cells was measured via immunofluorescence microscopy. […]

primary B-cells (AID+) = assay: Dose response in primary B-cells (AID+); format: cell-based; details: FIG. 10
Experimental: Dose responses for C-1523 (blue) and C-1523-1a (red) in primary B-cells (AID+) was determined (FIG. 10).

RAD51 = RAD51 (Mus musculus, UniProt Q08297); assay: RAD51 nucleocytoplasmic distribution by cell fractionation and Western blotting; format: cell-based; design: quantitation of RAD51 expression in nuclear and cytoplasmic fractions as determined by Western Blot; endogenous in cells
Experimental: It was next tested whether C-1523 would affect RAD51 localization or DNA damage-induced focus formation. Primary mouse B-cells were treated with 100 nM C-1523 (or vehicle control) and given either 0 or 2.5Gy ionizing irradiation. Following recovery in cell culture, cells were fixed and stained for immunofluorescence imaging to measure subcellular localization of RAD51. […] To confirm the effect of C-1523 on RAD51 subcellular localization, nucleocytoplasmic distribution was independently measured following C-1523 treatment by cell fractionation and Western blotting (FIG. 13D; Supplemental FIG. 2). […] This effect on subcellular localization was specific to RAD51, as localization of NF-kB, which undergoes nuclear translocation and homing to genomic target sites after cell stimulation, was unaffected by C-1523 exposure (FIGS. 13E-13F).

[3] = test system: primary splenic B-cells from AID−/− mice; assay: Expansion and viability of activated primary splenic B-cells; details: 50-250 nM, four days, αCD40+IL-4 activation
[4] = test system: primary B-cells from Trp53−/− mice; assay: Viability of activated primary B-cells; format: cell-based, mouse; details: 100 nM, 4-day activation
Experimental: Cell death mediated by C-1523 is p53-dependent. It was hypothesized that AID-dependent cytotoxicity induced by C-1523 would be associated with p53-mediated apoptosis. To test the importance of p53, a central regulator of cellular responses to DNA damage, viability was measured in mouse primary B-cells from Trp53+/+ versus Trp53−/− mice following exposure to C-1523. […] Caspase 3 activation, a marker of apoptotic cell death, was measured in C-1523 treated B-cells. B-cells were stained with an antibody that recognizes cleaved, activated caspase-3 (AC3) and the number of AC3-positive cells was measured via immunofluorescence microscopy. Following 10 Gy of ionizing irradiation Trp53+/+(WT), but not Trp53−/− cultures show a >30-fold increase in the percentage of AC3+ cells, confirming Trp53 dependent apoptosis in these cells after DNA damage. […] In order to more completely rule out apoptosis as the mode of cell death following C-1523 treatment in B cells, the expression of other common markers of apoptotic induction was examined via Western Blot.
Cell lines and cell culture. […] Immunofluorescence.

RAD51, sequence (Q08297 whole entry): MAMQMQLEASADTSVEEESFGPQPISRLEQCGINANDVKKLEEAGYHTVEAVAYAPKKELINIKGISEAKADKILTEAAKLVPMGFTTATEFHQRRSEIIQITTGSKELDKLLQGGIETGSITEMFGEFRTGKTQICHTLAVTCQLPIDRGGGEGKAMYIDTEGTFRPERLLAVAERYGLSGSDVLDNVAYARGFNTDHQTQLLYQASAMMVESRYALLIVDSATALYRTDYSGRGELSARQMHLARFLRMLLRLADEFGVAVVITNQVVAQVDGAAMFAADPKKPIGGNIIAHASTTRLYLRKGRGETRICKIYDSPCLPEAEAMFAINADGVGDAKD

CC(=O)Nc1ccc(/C=C/c2ccc(NC(=S)NC(C)C)cc2S(=O)(=O)O)c(S(=O)(=O)O)c1 [C-1523, (E)-5-acetamido-2-(4-(3-isopropylthioureido)-2-sulfonatostyryl)benzenesulfonate]
micronuclei in treated cells versus vehicle (MEC-1 cells): approximately 3.5 fold | concentration eliciting AID-specific cytotoxicity [1]: 100 nM | rank among DIDS analogs tested [1]: most potent DIDS analog tested | AID+:AID− activity score: effect in AID+ cells versus corresponding AID- cells ([1]; 10 μM): roughly 6 fold | effectiveness relative to DIDS ([1]; Example 3 summary): 1000 times | potency relative to DIDS ([1]; dose response data): at least 1500 times | median number of SCE events per chromosome (HEK293T cells): significantly reduced | acute side effects relative to DIDS (in vivo): no increased acute side effects | acute toxicity (in vivo): almost no acute toxicity | tolerance to prolonged drug exposure (single and multiple dose): excellent tolerance | caspase 3 activation [2]: did not significantly induce caspase 3 activation | concentration above which dose response is inverted (primary B-cells (AID+)): above 100 nM | fraction of RAD51 localized to the nucleus, following irradiation (RAD51): small, but measurable reduction | cellular expansion [3]: expanded identically to vehicle-treated controls | viability [4]: did not show reduced viability
